In PubChem BioAssay AID1259407 (Chemical Carcinogenesis Research Information System (CCRIS), 2018) one finds mutagenic call data, which are given here for nine molecules.

The source made the active and inactive calls. How the calls were made is not given here.

The subject of the series is CCRIS mutagenicity, Ames/micronucleus/aberration tests. The experiment in a line: CCRIS mutagenicity studies.
Where [1] appears, read: Test System: AMES SALMONELLA TYPHIMURIUM, Strain/Indicator: TA98, Metabolic Activation: NONE, Method: STANDARD PLATE.
Where [2] appears, read: Test System: AMES SALMONELLA TYPHIMURIUM, Strain/Indicator: TA98, Metabolic Activation: RAT, LIVER, S-9, AROCLOR 1254, Method: STANDARD PLATE.
Setting [3] is: Test System: AMES SALMONELLA TYPHIMURIUM, Strain/Indicator: TA100, Metabolic Activation: NONE, Method: STANDARD PLATE.
Setting [4] is: Test System: AMES SALMONELLA TYPHIMURIUM, Strain/Indicator: TA100, Metabolic Activation: RAT, LIVER, S-9, AROCLOR 1254, Method: STANDARD PLATE.
Setting [5] is: Test System: AMES SALMONELLA TYPHIMURIUM, Strain/Indicator: TA98, Metabolic Activation: NONE, Method: PREINCUBATION
The mark [6] stands for this setting: Test System: AMES SALMONELLA TYPHIMURIUM, Strain/Indicator: TA98, Metabolic Activation: RAT, LIVER, S-9, AROCLOR 1254 (10%), Method: PREINCUBATION
[7] abbreviates: Test System: AMES SALMONELLA TYPHIMURIUM, Strain/Indicator: TA100, Metabolic Activation: NONE, Method: PREINCUBATION
Where [8] appears, read: Test System: AMES SALMONELLA TYPHIMURIUM, Strain/Indicator: TA100, Metabolic Activation: RAT, LIVER, S-9, AROCLOR 1254 (10%), Method: PREINCUBATION
[9] abbreviates: Test System: AMES SALMONELLA TYPHIMURIUM, Strain/Indicator: TA97, Metabolic Activation: NONE, Method: PREINCUBATION
Where [10] appears, read: Test System: AMES SALMONELLA TYPHIMURIUM, Strain/Indicator: TA102, Metabolic Activation: NONE, Method: PREINCUBATION
Setting [11] is: Test System: AMES SALMONELLA TYPHIMURIUM, Strain/Indicator: TA1535, Metabolic Activation: NONE, Method: STANDARD PLATE.
Setting [12] is: Test System: AMES SALMONELLA TYPHIMURIUM, Strain/Indicator: TA1535, Metabolic Activation: RAT, LIVER, S-9, AROCLOR 1254, Method: STANDARD PLATE.

As for `O=C(O)C1Cc2c([nH]c3ccccc23)C(CO)N1` (stereo not drawn), the mutagenic call reads like this: (Test System: AMES SALMONELLA TYPHIMURIUM, Strain/Indicator: TA97, Metabolic Activation: NONE, Method: STANDARD PLATE) “inactive; negative”; (Test System: AMES SALMONELLA TYPHIMURIUM, Strain/Indicator: TA97, Metabolic Activation: RAT, LIVER, S-9, AROCLOR 1254, Method: STANDARD PLATE) “inactive; negative”; under setting [1], “inactive; negative”; under setting [2], “inactive; negative”; under setting [3], “inactive; negative”; under setting [4], “inactive; negative”.

Consider `Cc1cccc2c([N+](=O)[O-])cc[n+]([O-])c12`, for which, for the setting “Test System: UDS RODENT PRIMARY CELLS, Strain/Indicator: THY INCORP (NON-S-PHASE), Metabolic Activation: NONE, Method: AUTORADIOGRAPHY”, the mutagenic call was “active; positive”.

`CCC[CH2][Sn]=[O]`: the mutagenic call (Test System: AMES SALMONELLA TYPHIMURIUM, Strain/Indicator: TA98, Metabolic Activation: NONE, Method: SUSPENSION/PLATE) was “inactive; negative” and the mutagenic call (Test System: AMES SALMONELLA TYPHIMURIUM, Strain/Indicator: TA100, Metabolic Activation: NONE, Method: SUSPENSION/PLATE) was “inactive; negative”.

Take `COc1cc(-c2cc(=O)c3c(O)cc(O)cc3o2)ccc1O`: the mutagenic call by setting is: (Test System: Ames Salmonella typhimurium, Strain/Indicator: TA98, Metabolic Activation: None, Method: Standard plate) “inactive; negative”; (Test System: Ames Salmonella typhimurium, Strain/Indicator: TA98, Metabolic Activation: Rat, Liver, S-9, Aroclor 1254, Method: Standard plate) “inactive; negative”.

As to `CC(C)(C)CN(N=O)C(N)=O`, the mutagenic call by setting is: (Test System: E. COLI, Strain/Indicator: HS30R UVRA, Metabolic Activation: NONE, Method: PREINCUBATION) “active; positive”; (Test System: E. COLI, Strain/Indicator: O16 POLA, Metabolic Activation: NONE, Method: PREINCUBATION) “active; positive”.

For the molecule `CC(=O)/C=C/c1ccc2c(c1)OCO2`, the mutagenic call is, setting by setting: (Test System: AMES SALMONELLA TYPHIMURIUM, Strain/Indicator: TA98, Metabolic Activation: HAMSTER, LIVER, S-9, AROCLOR 1254 (10%), Method: PREINCUBATION) “inactive; negative”; under setting [5], “inactive; negative”; under setting [6], “inactive; negative”; (Test System: AMES SALMONELLA TYPHIMURIUM, Strain/Indicator: TA100, Metabolic Activation: HAMSTER, LIVER, S-9, AROCLOR 1254 (10%), Method: PREINCUBATION) “inactive; negative”; under setting [7], “inactive; negative”; under setting [8], “inactive; negative”. Also, the mutagenic call runs as follows: (Test System: AMES SALMONELLA TYPHIMURIUM, Strain/Indicator: TA1535, Metabolic Activation: HAMSTER, LIVER, S-9, AROCLOR 1254 (10%), Method: PREINCUBATION) “inactive; negative”; (Test System: AMES SALMONELLA TYPHIMURIUM, Strain/Indicator: TA1535, Metabolic Activation: NONE, Method: PREINCUBATION) “inactive; negative”; (Test System: AMES SALMONELLA TYPHIMURIUM, Strain/Indicator: TA1535, Metabolic Activation: RAT, LIVER, S-9, AROCLOR 1254 (10%), Method: PREINCUBATION) “inactive; negative”; (Test System: AMES SALMONELLA TYPHIMURIUM, Strain/Indicator: TA1537, Metabolic Activation: HAMSTER, LIVER, S-9, AROCLOR 1254 (10%), Method: PREINCUBATION) “inactive; negative”; (Test System: AMES SALMONELLA TYPHIMURIUM, Strain/Indicator: TA1537, Metabolic Activation: NONE, Method: PREINCUBATION) “inactive; negative”; (Test System: AMES SALMONELLA TYPHIMURIUM, Strain/Indicator: TA1537, Metabolic Activation: RAT, LIVER, S-9, AROCLOR 1254 (10%), Method: PREINCUBATION) “inactive; negative”.

Consider `OCl`, for which the mutagenic call is “inactive; negative” (End Point: IN VIVO MICRONUCLEUS, Test System: BONE MARROW POLYCHROMATIC ERYTHROCYTES, Species: MOUSE, Strain/Sex: DDY/MALE, Route: IP); “inactive; negative” under setting [9]; “inactive; negative” (Test System: AMES SALMONELLA TYPHIMURIUM, Strain/Indicator: TA97, Metabolic Activation: RAT, LIVER, S-9, AROCLOR 1254, Method: PREINCUBATION); “inactive; negative” (Test System: AMES SALMONELLA TYPHIMURIUM, Strain/Indicator: TA98, Metabolic Activation: NONE, Method: FLUCTUATION TEST); “inactive; negative” under setting [1]; “inactive; negative” under setting [2]. In addition, the mutagenic call runs as follows: (Test System: AMES SALMONELLA TYPHIMURIUM, Strain/Indicator: TA100, Metabolic Activation: NONE, Method: FLUCTUATION TEST) “inactive; negative”; under setting [3], “inactive; negative”; under setting [4], “inactive; negative”; (Test System: AMES SALMONELLA TYPHIMURIUM, Strain/Indicator: TA102, Metabolic Activation: NONE, Method: FLUCTUATION TEST) “inactive; negative”; under setting [10], “inactive; negative”; (Test System: AMES SALMONELLA TYPHIMURIUM, Strain/Indicator: TA102, Metabolic Activation: RAT, LIVER, S-9, AROCLOR 1254, Method: PREINCUBATION) “inactive; negative”. The mutagenic call is “inactive; negative” under setting [11]; “inactive; negative” under setting [12]; “inactive; negative” (Test System: AMES SALMONELLA TYPHIMURIUM, Strain/Indicator: TA1537, Metabolic Activation: NONE, Method: STANDARD PLATE); “inactive; negative” (Test System: AMES SALMONELLA TYPHIMURIUM, Strain/Indicator: TA1537, Metabolic Activation: RAT, LIVER, S-9, AROCLOR 1254, Method: STANDARD PLATE); “inactive; negative” (Test System: AMES SALMONELLA TYPHIMURIUM, Strain/Indicator: TA1538, Metabolic Activation: NONE, Method: STANDARD PLATE); “inactive; negative” (Test System: AMES SALMONELLA TYPHIMURIUM, Strain/Indicator: TA1538, Metabolic Activation: RAT, LIVER, S-9, AROCLOR 1254, Method: STANDARD PLATE). In addition, the mutagenic call was “inactive; negative” (Test System: CHINESE HAMSTER OVARY, Strain/Indicator: CHO-K1-BH4 (HGPRT), Metabolic Activation: NONE, Method: STANDARD PLATE) and “inactive; negative” (Test System: UDS RODENT HEPATOCYTES, Strain/Indicator: THY INCORP (NON-S-PHASE), Metabolic Activation: NONE, Method: LIQUID SCINTILLATION COUNTING).

With `O=c1c2[nH]c3ccccc3c2nnn1/N=C/c1ccc([N+](=O)[O-])cc1`, the mutagenic call runs as follows: under setting [9], “active; positive”; (Test System: AMES SALMONELLA TYPHIMURIUM, Strain/Indicator: TA97, Metabolic Activation: RAT, LIVER, S-9, AROCLOR 1254 (10%), Method: PREINCUBATION) “active; positive”; under setting [5], “active; positive”; under setting [6], “active; positive”; under setting [7], “active; positive”; under setting [8], “active; positive”. The mutagenic call runs as follows: under setting [10], “inactive; negative”; (Test System: AMES SALMONELLA TYPHIMURIUM, Strain/Indicator: TA102, Metabolic Activation: RAT, LIVER, S-9, AROCLOR 1254 (10%), Method: PREINCUBATION) “inactive; negative”.

As for `C1CCCC2OC2CC1` (stereo not drawn), the mutagenic call was “inactive; negative” under setting [3]; “inactive; negative” under setting [4]; “inactive; negative” under setting [11]; “inactive; negative” under setting [12]; “inactive; negative” (Test System: UDS RAT HEPATOCYTES, Strain/Indicator: THY INCORP, Metabolic Activation: NONE).
